What was measured:
[1] = target: Aurora kinase B (Homo sapiens) (UniProt Q96GD4); test: Inhibition of AURKB (unknown origin) assessed as residual activity at 100 nM by KINOMEscan analysis relative to control
[2] = test system: Mast/stem cell growth factor receptor Kit (Homo sapiens), P10721 [L576P]; test: Inhibition of KIT L576P mutant (unknown origin) assessed as residual activity at 100 nM by KINOMEscan analysis relative to control
[3] = target: T1, Interleukin-1 receptor-associated kinase 3 (Homo sapiens) (UniProt Q9Y616); test: Inhibition of IRAK3 (unknown origin) assessed as residual activity at 100 nM by KINOMEscan analysis relative to control
T1 sequence (whole entry): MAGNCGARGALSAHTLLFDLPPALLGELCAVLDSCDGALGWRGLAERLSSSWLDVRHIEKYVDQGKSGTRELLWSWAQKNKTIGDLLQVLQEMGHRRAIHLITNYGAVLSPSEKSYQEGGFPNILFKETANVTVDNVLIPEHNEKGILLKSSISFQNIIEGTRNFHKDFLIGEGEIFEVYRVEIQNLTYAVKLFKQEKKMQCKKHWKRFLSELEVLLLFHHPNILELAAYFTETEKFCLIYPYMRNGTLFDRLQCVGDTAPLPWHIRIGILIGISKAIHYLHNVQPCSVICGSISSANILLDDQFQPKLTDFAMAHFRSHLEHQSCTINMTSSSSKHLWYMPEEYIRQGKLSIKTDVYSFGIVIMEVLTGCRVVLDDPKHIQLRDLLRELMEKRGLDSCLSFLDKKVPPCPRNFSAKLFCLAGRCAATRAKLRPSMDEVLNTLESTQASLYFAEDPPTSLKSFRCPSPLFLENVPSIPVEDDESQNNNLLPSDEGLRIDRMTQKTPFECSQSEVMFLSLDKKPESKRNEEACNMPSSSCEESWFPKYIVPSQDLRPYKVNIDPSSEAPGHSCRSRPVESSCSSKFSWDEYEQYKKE

[4] = test system: Epidermal growth factor receptor (Homo sapiens), P00533 [UNDEFINED MUTATION]; test: Inhibition of EGFR E746-A750del mutant (unknown origin) assessed as residual activity at 100 nM by KINOMEscan analysis relative to control
[5] = target: Cyclin-dependent kinase-like 3 (Homo sapiens) (UniProt Q8IVW4); test: Inhibition of CDKL3 (unknown origin) assessed as residual activity at 100 nM by KINOMEscan analysis relative to control
[6] = target: Serine/threonine-protein kinase 10 (Homo sapiens) (UniProt O94804); test: Inhibition of LOK (unknown origin) assessed as residual activity at 100 nM by KINOMEscan analysis relative to control
[7] = target: Serine/threonine-protein kinase PAK 2 (Homo sapiens) (UniProt Q13177); test: Inhibition of PAK2 (unknown origin) assessed as residual activity at 100 nM by KINOMEscan analysis relative to control
[8] = test system: Tyrosine-protein kinase ABL1 (Homo sapiens), P00519 [Y253F]; test: Inhibition of phosphorylated ABL1 Y253F mutant (unknown origin) assessed as residual activity at 100 nM by KINOMEscan analysis relative to control
[9] = target: Serine/threonine-protein kinase N2 (Homo sapiens) (UniProt Q16513); test: Inhibition of PKN2 (unknown origin) assessed as residual activity at 100 nM by KINOMEscan analysis relative to control
[10] = target: T2, Dual specificity mitogen-activated protein kinase kinase 5 (Homo sapiens) (UniProt Q13163); test: Inhibition of MEK5 (unknown origin) assessed as residual activity at 100 nM by KINOMEscan analysis relative to control
T2 sequence (whole entry): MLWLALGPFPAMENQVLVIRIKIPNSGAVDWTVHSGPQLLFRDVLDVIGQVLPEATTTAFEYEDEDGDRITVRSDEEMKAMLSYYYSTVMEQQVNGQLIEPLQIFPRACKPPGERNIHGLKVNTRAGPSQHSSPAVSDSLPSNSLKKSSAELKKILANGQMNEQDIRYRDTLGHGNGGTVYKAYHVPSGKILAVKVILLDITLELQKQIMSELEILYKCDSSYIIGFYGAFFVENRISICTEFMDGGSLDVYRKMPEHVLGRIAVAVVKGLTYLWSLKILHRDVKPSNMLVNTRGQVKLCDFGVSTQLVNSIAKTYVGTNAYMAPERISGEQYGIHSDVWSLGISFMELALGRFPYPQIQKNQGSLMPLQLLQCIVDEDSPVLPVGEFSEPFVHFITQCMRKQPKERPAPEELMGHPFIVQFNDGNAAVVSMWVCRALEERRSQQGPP

[11] = target: T3, Receptor-interacting serine/threonine-protein kinase 4 (Homo sapiens) (UniProt P57078); test: Inhibition of RIPK4 (unknown origin) assessed as residual activity at 100 nM by KINOMEscan analysis relative to control
T3 sequence (whole entry): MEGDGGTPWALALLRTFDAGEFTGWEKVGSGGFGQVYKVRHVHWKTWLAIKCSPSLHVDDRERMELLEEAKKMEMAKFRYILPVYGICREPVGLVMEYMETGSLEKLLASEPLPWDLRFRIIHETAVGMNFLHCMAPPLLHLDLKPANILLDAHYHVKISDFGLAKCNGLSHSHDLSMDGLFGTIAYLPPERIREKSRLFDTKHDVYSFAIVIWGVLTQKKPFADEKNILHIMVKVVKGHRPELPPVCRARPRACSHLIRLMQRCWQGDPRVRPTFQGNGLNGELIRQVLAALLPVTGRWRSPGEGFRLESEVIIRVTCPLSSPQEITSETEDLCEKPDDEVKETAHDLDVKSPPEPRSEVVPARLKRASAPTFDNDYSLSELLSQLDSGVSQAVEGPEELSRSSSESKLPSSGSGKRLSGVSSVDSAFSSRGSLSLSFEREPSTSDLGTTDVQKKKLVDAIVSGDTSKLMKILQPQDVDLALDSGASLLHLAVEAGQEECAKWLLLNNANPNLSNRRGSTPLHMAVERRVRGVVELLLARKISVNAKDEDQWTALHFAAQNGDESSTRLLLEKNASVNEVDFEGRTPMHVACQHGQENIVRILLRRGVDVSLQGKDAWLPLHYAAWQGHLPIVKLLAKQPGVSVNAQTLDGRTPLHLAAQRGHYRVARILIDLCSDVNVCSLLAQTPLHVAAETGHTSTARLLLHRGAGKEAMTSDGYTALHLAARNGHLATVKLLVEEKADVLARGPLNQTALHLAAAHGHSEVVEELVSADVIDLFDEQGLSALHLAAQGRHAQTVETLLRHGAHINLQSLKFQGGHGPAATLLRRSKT

Sequence of Serine/threonine-protein kinase N2 (Homo sapiens) (Q16513 whole entry, looked up): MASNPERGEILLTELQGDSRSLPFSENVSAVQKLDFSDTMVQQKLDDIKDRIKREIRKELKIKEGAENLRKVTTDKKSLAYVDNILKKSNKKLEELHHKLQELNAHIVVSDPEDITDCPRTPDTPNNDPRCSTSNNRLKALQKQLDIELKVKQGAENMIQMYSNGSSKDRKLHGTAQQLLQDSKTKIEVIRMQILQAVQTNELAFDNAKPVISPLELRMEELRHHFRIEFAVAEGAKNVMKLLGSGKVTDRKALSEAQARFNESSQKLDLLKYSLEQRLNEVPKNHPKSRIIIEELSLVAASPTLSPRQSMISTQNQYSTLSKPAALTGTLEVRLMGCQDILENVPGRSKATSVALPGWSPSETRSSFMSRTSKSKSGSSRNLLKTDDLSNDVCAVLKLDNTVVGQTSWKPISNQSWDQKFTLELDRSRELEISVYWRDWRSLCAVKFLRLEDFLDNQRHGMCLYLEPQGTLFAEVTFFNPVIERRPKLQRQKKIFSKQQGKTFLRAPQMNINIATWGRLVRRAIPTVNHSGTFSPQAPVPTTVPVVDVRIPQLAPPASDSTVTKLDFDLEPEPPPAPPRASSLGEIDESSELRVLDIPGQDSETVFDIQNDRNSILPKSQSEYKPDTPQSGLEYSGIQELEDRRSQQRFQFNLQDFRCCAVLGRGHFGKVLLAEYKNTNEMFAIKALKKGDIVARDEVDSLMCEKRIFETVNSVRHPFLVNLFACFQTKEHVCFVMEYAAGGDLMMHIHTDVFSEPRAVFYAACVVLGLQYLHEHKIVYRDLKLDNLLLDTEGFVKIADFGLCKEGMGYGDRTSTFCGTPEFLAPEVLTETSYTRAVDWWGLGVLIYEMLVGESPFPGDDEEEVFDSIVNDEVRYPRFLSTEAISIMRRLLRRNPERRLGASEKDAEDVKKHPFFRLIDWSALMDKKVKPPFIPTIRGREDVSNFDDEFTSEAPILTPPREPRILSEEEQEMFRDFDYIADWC
Sequence of Mast/stem cell growth factor receptor Kit (Homo sapiens), P10721 [L576P] (P10721 whole entry L576P): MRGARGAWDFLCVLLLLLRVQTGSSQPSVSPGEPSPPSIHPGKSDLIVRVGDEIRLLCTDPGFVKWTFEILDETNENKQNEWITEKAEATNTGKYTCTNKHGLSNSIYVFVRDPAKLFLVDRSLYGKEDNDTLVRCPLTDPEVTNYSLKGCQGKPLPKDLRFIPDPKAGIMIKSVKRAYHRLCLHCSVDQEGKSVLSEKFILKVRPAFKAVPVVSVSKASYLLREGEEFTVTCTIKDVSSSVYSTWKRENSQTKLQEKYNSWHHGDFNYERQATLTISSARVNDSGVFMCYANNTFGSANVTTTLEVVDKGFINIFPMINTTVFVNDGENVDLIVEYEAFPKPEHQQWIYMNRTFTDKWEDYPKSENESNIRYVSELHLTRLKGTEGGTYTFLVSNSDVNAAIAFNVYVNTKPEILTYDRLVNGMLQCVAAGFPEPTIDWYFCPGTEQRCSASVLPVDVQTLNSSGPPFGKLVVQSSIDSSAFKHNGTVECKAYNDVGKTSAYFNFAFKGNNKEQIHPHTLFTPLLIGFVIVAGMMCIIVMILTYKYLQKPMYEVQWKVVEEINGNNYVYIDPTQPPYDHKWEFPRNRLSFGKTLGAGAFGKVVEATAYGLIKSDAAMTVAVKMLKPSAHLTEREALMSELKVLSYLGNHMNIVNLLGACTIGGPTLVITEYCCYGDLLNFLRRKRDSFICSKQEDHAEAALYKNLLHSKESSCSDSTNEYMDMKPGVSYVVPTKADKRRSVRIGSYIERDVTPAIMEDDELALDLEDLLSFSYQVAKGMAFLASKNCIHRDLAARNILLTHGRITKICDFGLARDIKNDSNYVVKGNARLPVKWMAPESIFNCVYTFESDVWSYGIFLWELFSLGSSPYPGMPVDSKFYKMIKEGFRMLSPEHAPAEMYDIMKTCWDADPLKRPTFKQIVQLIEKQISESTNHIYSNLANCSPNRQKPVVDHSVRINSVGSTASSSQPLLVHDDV
Sequence of Serine/threonine-protein kinase 10 (Homo sapiens) (O94804 whole entry, looked up): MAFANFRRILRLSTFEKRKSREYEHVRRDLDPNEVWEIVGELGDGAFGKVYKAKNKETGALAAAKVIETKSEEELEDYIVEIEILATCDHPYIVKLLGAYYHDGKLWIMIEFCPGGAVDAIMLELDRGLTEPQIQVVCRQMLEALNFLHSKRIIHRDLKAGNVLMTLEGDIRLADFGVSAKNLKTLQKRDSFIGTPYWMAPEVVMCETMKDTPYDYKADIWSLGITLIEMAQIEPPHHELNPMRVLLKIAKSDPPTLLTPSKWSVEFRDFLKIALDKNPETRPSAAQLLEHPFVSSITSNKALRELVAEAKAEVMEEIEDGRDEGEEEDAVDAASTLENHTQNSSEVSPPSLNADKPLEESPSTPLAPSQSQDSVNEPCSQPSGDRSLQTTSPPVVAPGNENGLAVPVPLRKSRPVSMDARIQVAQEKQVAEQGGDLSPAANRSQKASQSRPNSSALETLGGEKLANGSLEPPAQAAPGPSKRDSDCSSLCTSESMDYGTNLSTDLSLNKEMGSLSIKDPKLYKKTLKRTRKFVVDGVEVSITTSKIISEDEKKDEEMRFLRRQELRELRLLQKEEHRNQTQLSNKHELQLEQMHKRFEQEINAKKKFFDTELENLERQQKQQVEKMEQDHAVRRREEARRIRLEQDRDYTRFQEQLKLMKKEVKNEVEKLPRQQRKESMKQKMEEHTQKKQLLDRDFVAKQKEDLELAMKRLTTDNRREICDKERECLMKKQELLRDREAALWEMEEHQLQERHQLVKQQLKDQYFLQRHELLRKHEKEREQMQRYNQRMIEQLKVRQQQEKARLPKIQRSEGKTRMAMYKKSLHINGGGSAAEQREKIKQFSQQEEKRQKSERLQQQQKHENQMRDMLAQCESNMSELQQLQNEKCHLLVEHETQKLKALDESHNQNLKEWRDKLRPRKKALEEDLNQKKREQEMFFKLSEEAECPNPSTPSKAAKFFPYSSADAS
Sequence of Serine/threonine-protein kinase PAK 2 (Homo sapiens) (Q13177 whole entry): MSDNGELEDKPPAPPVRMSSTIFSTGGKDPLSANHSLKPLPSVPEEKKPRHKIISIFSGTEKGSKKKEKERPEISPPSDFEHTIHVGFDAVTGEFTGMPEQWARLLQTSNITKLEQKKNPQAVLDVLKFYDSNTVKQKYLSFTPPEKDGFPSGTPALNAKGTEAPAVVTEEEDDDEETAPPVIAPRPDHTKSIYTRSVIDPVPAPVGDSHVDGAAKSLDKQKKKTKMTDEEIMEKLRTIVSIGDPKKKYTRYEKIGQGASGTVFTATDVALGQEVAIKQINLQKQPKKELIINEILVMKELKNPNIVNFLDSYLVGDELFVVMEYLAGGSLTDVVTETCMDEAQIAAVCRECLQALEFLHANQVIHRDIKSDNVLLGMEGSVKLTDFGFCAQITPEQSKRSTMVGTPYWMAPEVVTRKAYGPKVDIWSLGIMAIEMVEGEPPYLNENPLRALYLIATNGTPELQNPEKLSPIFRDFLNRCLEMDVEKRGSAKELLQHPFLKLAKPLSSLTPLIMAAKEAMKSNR
Sequence of Epidermal growth factor receptor (Homo sapiens), P00533 [UNDEFINED MUTATION] (P00533 whole entry, looked up, stated change not applied): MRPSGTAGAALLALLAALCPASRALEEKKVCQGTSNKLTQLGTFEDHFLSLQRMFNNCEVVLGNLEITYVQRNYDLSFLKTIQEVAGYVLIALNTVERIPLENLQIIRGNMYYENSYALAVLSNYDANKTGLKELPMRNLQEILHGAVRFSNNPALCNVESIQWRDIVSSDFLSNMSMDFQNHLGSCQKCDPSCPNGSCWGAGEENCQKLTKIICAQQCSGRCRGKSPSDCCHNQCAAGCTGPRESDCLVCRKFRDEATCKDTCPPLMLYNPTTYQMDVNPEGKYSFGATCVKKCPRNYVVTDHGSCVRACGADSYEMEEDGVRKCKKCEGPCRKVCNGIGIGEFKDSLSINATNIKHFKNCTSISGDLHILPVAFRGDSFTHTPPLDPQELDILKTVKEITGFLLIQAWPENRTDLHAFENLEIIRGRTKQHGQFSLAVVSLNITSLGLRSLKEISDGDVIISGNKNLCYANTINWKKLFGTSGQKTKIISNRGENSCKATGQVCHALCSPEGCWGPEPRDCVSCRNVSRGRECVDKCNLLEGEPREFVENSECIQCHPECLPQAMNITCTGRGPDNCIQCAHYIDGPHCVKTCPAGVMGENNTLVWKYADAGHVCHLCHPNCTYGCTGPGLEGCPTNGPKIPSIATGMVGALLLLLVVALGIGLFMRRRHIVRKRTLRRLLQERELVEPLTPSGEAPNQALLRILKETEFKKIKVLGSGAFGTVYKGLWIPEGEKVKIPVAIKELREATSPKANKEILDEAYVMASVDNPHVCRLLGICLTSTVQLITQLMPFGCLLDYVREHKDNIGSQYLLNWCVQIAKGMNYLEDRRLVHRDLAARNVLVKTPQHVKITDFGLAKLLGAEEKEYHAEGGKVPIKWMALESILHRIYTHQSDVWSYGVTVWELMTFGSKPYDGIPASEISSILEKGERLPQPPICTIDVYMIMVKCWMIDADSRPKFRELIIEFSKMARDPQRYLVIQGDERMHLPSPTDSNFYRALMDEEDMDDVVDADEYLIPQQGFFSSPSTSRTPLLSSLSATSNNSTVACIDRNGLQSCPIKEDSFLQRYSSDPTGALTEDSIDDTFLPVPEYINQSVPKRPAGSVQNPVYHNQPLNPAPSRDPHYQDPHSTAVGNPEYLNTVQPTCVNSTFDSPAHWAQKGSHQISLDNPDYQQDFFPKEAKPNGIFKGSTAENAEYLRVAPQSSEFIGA
Sequence of Aurora kinase B (Homo sapiens) (Q96GD4 whole entry): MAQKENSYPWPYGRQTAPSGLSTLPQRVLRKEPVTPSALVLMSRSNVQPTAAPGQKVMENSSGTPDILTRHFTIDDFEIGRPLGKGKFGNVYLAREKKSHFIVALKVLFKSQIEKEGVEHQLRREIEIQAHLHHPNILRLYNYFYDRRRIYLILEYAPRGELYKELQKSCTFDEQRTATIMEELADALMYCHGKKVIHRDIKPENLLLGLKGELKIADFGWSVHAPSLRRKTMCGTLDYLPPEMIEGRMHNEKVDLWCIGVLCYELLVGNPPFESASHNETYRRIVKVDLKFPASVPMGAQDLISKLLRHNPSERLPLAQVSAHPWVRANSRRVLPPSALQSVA

SMILES: COc1cc2ncnc(N[C@H](C)c3cccc4ccccc34)c2cc1OC
- Activity [1]: 96%
- Activity [2]: 85%
- Activity [3]: 100%
- Activity [4]: 88%
- Activity [5]: 100%
- Activity [6]: 98%
- Activity [7]: 100%
- Activity [8]: 98%
- Activity [9]: 88%
- Activity [10]: 83%
- Activity [11]: 77%

Reference: ChEMBL document CHEMBL5678818, “Discovery of potent SOS1 inhibitors that block RAS activation via disruption of the RAS-SOS1 interaction” (Proc Natl Acad Sci U S A, 2019)
